# ChEMBL document CHEMBL5465560, “Selectivity Literature for EUbOPEN Chemogenomic Library” (2024)
# Experiments:
# [1] = target: Serine/threonine-protein kinase Nek6 (Homo sapiens) (UniProt Q9HC98); assay: Selectivity interaction (Kinase panel (literature)) EUB0001199aCl NEK6; settings: at 1 µM
# [2] = target: Receptor tyrosine-protein kinase erbB-4 (Homo sapiens, UniProt Q15303); assay: Selectivity interaction (KinomeScan (DiscoverX)) EUB0000666a ERBB4; settings: at 10 µM
# [3] = target: Protein arginine N-methyltransferase 8 (Homo sapiens, UniProt Q9NR22); settings: at 10 µM
# [4] = target: Cyclin-dependent kinase 13 (Homo sapiens, UniProt Q14004); assay: Selectivity interaction (KinomeScan (DiscoverX)) EUB0001079a CDK13; settings: at 1 µM
# [5] = target: T1, Ephrin type-B receptor 1 (Homo sapiens) (UniProt P54762); settings: at 10 µM
# T1 sequence (whole entry): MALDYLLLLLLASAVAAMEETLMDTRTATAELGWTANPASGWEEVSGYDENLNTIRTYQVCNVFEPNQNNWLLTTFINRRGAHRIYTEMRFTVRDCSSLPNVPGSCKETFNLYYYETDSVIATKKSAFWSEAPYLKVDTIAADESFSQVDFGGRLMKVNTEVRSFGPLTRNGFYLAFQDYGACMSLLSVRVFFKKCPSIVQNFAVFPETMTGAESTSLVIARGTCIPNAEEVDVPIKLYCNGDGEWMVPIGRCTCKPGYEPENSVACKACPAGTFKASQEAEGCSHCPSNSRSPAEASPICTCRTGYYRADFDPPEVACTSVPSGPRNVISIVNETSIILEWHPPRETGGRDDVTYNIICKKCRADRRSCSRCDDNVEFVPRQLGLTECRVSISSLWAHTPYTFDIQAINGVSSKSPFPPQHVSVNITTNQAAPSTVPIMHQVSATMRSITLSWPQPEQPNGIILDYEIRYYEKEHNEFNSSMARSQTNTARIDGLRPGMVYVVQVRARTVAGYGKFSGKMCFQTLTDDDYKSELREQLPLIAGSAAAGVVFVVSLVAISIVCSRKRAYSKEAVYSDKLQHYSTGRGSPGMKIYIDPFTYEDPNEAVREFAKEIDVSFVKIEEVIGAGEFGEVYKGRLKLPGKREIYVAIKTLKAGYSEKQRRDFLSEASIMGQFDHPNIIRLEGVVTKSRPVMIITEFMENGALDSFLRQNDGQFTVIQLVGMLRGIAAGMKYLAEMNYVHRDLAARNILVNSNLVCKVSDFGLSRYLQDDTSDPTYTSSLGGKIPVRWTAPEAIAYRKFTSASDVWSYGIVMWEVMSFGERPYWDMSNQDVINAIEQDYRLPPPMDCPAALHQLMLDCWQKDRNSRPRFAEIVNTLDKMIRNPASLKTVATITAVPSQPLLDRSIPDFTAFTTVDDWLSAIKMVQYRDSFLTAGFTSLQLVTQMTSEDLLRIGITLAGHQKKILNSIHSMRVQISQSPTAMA
# [6] = target: BMP-2-inducible protein kinase (Homo sapiens) (UniProt Q9NSY1); assay: Selectivity interaction (Kinase panel (DSF assay)) EUB0001489b BMP2K
# [7] = target: SRSF protein kinase 2 (Homo sapiens) (UniProt P78362); assay: Selectivity interaction (KinomeScan (DiscoverX)) EUB0000092b SRPK2; settings: at 10 µM
# [8] = target: Tyrosine-protein kinase SYK (Homo sapiens, UniProt P43405); assay: Selectivity interaction (ActivX KiNativ screen (ex vivo kinase selectivity in human PBMCs)) EUB0001619a SYK; assay type: cell-based; settings: PBMC, at 1 µM
# [9] = target: T2, Ephrin type-A receptor 3 (Homo sapiens) (UniProt P29320); assay: Selectivity interaction (KinomeScan (DiscoverX)) EUB0000655a EPHA3; settings: at 10 µM
# T2 sequence (whole entry): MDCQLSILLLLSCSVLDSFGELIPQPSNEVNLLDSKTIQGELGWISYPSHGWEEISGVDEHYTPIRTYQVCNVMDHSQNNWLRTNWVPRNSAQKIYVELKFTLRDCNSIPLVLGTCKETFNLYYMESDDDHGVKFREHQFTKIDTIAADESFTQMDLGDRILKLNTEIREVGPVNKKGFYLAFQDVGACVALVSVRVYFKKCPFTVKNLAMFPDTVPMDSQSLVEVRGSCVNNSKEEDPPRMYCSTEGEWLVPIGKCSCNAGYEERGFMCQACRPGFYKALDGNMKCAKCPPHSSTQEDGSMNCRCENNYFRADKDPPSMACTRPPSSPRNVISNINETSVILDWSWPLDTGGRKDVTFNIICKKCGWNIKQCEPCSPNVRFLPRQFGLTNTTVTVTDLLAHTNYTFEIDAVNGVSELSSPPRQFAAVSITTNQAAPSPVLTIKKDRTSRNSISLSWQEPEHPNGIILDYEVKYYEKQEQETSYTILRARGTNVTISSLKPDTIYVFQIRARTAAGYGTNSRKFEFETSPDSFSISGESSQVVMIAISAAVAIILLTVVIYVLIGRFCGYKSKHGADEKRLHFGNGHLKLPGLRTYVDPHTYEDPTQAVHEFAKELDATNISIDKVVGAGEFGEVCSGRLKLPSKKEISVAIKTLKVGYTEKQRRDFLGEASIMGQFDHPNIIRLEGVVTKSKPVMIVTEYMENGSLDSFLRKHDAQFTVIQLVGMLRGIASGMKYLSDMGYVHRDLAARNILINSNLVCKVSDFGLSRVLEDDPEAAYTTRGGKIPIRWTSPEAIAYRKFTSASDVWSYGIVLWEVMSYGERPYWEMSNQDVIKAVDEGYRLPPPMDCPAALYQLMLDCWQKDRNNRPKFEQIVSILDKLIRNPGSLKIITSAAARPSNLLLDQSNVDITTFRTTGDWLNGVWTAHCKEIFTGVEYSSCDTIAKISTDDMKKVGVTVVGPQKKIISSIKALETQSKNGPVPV
# [10] = target: Serine/threonine-protein kinase PAK 4 (Homo sapiens, UniProt O96013); assay: Selectivity interaction (KinomeScan (DiscoverX)) EUB0000607a PAK4; settings: at 10 µM
# [11] = target: T2, Ephrin type-A receptor 3 (Homo sapiens); assay: Selectivity interaction (LanthaScreen Eu Kinase Binding Assay) EUB0001632a EPHA3; settings: at 10 µM
# [12] = target: Ribosomal protein S6 kinase alpha-2 (Homo sapiens) (UniProt Q15349); assay: Selectivity interaction (ProQinase) EUB0000171b RPS6KA2
# Ribosomal protein S6 kinase alpha-2 (Homo sapiens), sequence (Q15349 whole entry): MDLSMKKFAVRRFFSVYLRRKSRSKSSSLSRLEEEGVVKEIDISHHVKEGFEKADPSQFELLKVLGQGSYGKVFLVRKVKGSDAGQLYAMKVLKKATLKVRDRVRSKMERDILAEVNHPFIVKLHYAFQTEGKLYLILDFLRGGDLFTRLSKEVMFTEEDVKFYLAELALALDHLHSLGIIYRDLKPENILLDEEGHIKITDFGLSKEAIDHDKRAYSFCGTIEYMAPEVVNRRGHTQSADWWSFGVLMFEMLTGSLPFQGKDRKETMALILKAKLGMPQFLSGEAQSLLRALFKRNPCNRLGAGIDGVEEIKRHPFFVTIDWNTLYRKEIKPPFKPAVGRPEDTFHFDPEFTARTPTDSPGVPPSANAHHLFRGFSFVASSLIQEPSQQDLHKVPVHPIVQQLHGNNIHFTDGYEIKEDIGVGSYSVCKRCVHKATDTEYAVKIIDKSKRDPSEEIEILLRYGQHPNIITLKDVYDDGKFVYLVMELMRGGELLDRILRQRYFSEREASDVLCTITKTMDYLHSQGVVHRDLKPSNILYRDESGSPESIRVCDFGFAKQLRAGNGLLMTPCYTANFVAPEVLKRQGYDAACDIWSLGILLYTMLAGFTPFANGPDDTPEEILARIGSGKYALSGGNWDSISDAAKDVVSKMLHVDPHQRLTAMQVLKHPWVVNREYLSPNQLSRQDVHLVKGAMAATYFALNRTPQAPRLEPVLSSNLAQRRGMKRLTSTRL
# Serine/threonine-protein kinase Nek6 (Homo sapiens), sequence (Q9HC98 whole entry): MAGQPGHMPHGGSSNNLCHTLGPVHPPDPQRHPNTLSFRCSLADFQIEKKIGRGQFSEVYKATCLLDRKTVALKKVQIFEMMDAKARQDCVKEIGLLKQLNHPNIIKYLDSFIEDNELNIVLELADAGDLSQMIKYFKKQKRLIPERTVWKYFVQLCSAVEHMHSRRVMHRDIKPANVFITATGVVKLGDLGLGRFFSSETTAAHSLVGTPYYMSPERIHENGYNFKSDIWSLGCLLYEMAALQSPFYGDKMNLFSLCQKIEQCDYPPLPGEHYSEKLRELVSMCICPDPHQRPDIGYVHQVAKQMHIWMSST
# Cyclin-dependent kinase 13, sequence (Q14004 whole entry, looked up): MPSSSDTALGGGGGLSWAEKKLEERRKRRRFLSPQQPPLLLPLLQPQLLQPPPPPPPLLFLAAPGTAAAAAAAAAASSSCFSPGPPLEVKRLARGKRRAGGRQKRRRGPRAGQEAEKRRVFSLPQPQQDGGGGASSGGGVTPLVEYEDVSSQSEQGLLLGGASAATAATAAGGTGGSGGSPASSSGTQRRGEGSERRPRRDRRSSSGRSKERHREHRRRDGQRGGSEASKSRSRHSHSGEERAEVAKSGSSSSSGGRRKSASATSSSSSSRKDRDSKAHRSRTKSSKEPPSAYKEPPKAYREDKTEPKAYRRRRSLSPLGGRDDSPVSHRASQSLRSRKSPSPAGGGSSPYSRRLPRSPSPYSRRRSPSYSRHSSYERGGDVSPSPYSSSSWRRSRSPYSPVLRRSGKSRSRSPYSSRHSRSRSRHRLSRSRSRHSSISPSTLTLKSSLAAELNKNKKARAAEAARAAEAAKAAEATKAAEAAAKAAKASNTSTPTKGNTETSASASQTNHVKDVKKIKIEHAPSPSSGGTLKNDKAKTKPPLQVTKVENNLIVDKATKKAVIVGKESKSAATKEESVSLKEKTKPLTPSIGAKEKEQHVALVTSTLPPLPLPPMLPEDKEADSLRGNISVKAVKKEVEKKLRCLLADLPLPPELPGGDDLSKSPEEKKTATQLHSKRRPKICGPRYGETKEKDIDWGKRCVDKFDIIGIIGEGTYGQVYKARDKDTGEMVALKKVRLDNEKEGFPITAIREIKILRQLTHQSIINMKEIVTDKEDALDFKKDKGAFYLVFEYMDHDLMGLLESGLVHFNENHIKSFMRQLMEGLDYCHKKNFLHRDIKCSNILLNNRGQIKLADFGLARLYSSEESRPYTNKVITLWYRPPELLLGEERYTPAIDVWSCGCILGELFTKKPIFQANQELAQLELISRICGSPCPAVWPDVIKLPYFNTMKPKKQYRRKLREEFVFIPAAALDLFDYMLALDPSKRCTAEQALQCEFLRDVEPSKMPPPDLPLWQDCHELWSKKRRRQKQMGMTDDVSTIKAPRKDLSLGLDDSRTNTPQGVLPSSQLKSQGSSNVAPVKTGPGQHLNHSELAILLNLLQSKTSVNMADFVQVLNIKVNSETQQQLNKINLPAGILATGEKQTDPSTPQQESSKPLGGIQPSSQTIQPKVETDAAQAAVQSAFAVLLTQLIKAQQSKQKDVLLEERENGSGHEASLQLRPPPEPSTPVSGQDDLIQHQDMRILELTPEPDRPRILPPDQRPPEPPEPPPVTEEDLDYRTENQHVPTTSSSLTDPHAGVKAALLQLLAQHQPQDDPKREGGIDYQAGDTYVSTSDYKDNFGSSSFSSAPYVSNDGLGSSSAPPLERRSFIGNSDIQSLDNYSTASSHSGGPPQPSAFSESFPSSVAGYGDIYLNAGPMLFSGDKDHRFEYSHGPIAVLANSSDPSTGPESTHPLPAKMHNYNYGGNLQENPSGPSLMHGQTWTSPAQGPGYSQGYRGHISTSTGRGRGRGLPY
# Serine/threonine-protein kinase PAK 4, sequence (O96013 whole entry, looked up): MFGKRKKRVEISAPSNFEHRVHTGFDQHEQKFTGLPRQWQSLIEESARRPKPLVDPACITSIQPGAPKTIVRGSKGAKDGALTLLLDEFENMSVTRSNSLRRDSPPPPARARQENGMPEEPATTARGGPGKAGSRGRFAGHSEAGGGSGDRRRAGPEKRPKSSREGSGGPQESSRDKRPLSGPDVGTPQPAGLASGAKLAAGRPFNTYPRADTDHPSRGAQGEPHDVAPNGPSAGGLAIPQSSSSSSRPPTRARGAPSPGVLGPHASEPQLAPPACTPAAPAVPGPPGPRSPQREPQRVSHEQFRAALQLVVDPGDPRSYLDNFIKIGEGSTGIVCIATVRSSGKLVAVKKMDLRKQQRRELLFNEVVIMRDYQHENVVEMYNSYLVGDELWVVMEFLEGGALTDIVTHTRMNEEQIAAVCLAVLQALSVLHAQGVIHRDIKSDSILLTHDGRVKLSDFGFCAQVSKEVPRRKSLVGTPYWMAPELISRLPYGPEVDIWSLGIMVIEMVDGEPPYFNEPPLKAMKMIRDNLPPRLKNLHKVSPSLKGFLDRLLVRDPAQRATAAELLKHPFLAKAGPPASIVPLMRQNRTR
# SRSF protein kinase 2 (Homo sapiens), sequence (P78362 whole entry, looked up): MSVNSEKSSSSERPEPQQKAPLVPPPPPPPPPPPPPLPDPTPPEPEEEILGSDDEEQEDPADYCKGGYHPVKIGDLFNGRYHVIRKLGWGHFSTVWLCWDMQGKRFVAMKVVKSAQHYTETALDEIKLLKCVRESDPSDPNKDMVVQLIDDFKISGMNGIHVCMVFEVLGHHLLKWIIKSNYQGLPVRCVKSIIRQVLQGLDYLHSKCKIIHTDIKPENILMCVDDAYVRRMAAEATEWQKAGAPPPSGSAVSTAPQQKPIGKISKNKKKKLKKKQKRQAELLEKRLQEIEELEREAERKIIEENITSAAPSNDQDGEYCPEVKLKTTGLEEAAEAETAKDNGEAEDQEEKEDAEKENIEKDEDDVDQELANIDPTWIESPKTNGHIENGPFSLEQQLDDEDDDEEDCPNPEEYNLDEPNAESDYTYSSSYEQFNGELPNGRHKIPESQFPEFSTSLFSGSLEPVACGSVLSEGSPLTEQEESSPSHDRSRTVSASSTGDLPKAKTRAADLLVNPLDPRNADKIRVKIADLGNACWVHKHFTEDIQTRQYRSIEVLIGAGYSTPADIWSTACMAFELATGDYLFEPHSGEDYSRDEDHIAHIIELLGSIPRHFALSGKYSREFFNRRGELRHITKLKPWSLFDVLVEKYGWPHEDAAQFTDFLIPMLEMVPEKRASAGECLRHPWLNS
# Protein arginine N-methyltransferase 8, sequence (Q9NR22 2-394 limits assumed): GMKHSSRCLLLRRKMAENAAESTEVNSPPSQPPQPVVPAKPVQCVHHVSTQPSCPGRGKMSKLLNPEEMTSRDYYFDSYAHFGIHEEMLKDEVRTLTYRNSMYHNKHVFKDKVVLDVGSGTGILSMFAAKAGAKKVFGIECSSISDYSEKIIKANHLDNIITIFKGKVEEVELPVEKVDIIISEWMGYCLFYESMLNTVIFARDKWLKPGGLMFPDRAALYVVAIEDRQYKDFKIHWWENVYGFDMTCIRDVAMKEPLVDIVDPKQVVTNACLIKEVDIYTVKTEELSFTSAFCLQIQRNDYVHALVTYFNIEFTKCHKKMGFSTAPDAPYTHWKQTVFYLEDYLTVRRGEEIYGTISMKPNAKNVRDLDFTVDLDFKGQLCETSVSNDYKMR
smiles,measurement,setting,value
CN1Cc2nccc(-c3cn(C)nc3-c3ccc(F)cc3)c2C1=O,% of inhibition,[1],5%
O=C(NOC[C@H](O)CO)c1ccc(F)c(F)c1Nc1ccc(I)cc1F,% of control,[2],100%
CNCCN1CCC(c2cc(CN(C)C(=O)c3cccc(Oc4ccccc4)c3)ccn2)CC1,% activity,[3],82%
Nc1cnc(N2CCc3cc(S(=O)(=O)Nc4c(F)cc(Cl)cc4F)cc(N4CCCC4=O)c32)nc1 [TP-020n],% of control,[4],100%
CCN(CC)CCCCNc1ncc2cc(-c3cc(OC)cc(OC)c3)c(NC(=O)NC(C)(C)C)nc2n1,% of control,[5],100%
CN1CCN(C(=O)c2ccc3cc2OCCOCCNc2ccn4ncc-3c4n2)CC1,dTM,[6],6.8 K
CCC(=O)N1CCN(c2ccc(-n3c(=O)ccc4cnc5ccc(-c6cnc7ccccc7c6)cc5c43)cc2C(F)(F)F)CC1,% of control,[7],100%
N#Cc1cccc(-c2c[nH]c3ncnc(N4CCOCC4)c23)c1,% of inhibition,[8],1%
CN(C)CCOc1ccc(-c2nc(-c3ccncc3)c(-c3ccc4c(c3)CC/C4=N\O)[nH]2)cc1,% of control,[9],99%
CNC(=O)Nc1ccc(-c2nc(N3CC4CCC(C3)O4)c3cnn(C4CCC5(CC4)OCCO5)c3n2)cc1,% of control,[10],100%
Cn1cc(-n2cnc3c(NCc4nc5cc(Cl)c(Cl)cc5[nH]4)nc(N4CCOCC4)nc32)cn1,% of inhibition,[11],-19.5%
C=CC(=O)Nc1cccc(C(=O)Nc2ccc(Nc3cc(-c4[nH]c(SC)nc4C)ccn3)cc2)c1,% of control,[12]; at 1 µM,88%
same,% of control,[12]; at 5 µM,69%
